In US10980769B2, “Tiglien-3-one derivatives” (QBIOTICS PTY LTD, priority 2005, dated 2021):
“Also recorded” adds a separate entry of the source.

Key:
LK2 mouse SCC = test: Topical treatment of LK2 mouse SCC tumours in nude mice; format: in vivo
Protocol: Tumour cells were injected subcutaneously (2 million cells/site in 50 μL culture medium for LK2 cells, 0.5 million for B16) into 4 sites each on the flanks of nude mice (for LK2 cells) or C57BL/6 mice (B16 mouse melanoma cells). When tumours became visible (2-4 mm diameter) five to 10 days after injection of cells, 37 μg of EBI-46 in 25 μL, of isopropanol gel was applied to each tumour site, each day for 3 days. Tumour size was measured with calipers at appropriate intervals.
(§1) Animal experiments were conducted under Queensland Institute of Medical Research (QIMR) Animal Ethics Committee approvals. The B16 mouse melanoma model was obtained by injecting 0.5 million B16 mouse melanoma cells subcutaneously into each of the 2 flanks of a male C57BL/6 mouse. The human tumour xenografts were obtained by injecting 2 million of the respective tumour cell line into each of 4 sites on the flanks of male nude mice (BALB/c background). EBI-46 was applied: (a) topically by dilution of a concentrated solution in acetone into an isopropanol gel, once a day for 3 days; (b) intralesionally by injection into the tumour of drug dissolved in 25% propylene glycol-0.1 M saline, (c) systemically by injection intraperitoneally in 25% propylene glycol in 0.1 M saline. Tumour size was measured with electronic callipers in mm and converted to volume (cubic mm) using the formula: Tumour volume=length×breadth×breadth/2. Results
The above was repeated using the UVB-induced mouse squamous cell carcinoma (SCC) grown on nude mice (FIG. 6) and treated with partially-purified EBI-46.
The most recent experiment with topical application used 2 different doses of EBI-46 (FIG. 7). The low dose was 100 μg/site and the high dose was 350 μg/site/treatment.

LK-2 mouse SCC = test: Intralesional injection of LK-2 SCC tumours in mice; format: in vivo
Protocol: Squamous Cell Carcinoma (SCC) tumours were established by the same method as for topical treatment but were allowed to grow for 15 days before drug treatment. 7 μg EBI-46 in 20 μL, saline was injected into each of 3 sides of the tumour. Tumour size was measured with calipers at appropriate intervals.
as §1
A pilot study was conducted on 6 mm×6 mm LK-2 tumours established in nude mice. Approximately 50 μL of a solution of EB548 fractions (approximately 20 μg EBI-46 in the EB548-35 fraction) in saline containing 20% acetone were injected in 3 sites around the periphery of each lesion. This was only done once.
With PEG 400 delivery, 10 μg EBI-46 in 25 μL solution was injected (29 gauge) with a 0.5 mL insulin needle into a 7 mm×7 mm tumour, highly visible on the left flank of a nude mouse.

Bacillus subtilis = test: ProTOX (Bs) antibacterial bioassay; format: cell-based
Source text: ProTOX, (alternatively referred to herein as Bs) is an antibacterial bioassay, broadly applicable to most aerobic and anaerobic bacteria. The bioassay features a solid phase agar base into which the test compound has been incorporated together with a chromogen. As the bacteria multiply in the well, the chromogen is metabolised from blue in a two-step process to a colourless compound. Compounds with potent bactericidal activity inhibit bacterial metabolism of the chromogen while bacteriostatic compounds induce limited metabolism as indicated by an intermediate pink colour. ProTOX is broadly applicable to a range of gram-positive and gram-negative bacteria under aerobic and microaerophilic conditions. ProTOX assays were carried out using Bacillus subtilis.
Briefly, in ProTOX, the bacteria (24 hour broth) were applied to the surface of an agar matrix containing the test sample and allowed to grow for 48 hours. The assay was monitored at 24 and 48 hours and the active wells noted. Known antibiotics yield consistent colour transitions which are concentration and time dependent. These patterns provide an important guide to the early recognition of interesting characteristics.

[1] = tested on: murine B-cell lymphoma line A20; test: Systemic (intraperitoneal) treatment of A20 lymphoma in SCID-NOD mice; format: in vivo; settings: 5 doses of 20-25 μg from day 18, one mouse
Protocol: as §1
The murine B-cell lymphoma line A20 was used as an experimental model because it has been reported to grow well in mice and closely models the human situation.
SCID-NOD mice (BALB/c background) were shaved and 10E7 A20 cells injected subcutaneously (2 sites per mouse). The tumours tended to grow in a flat, diffuse manner and became raised and measurable at the 10E7 sites only after about 15 days. […]

MM96L cell line = test: Changes in morphology of cultured cells; format: cell-based, human
Human melanoma SKMel-5 = test: Growth inhibition of cultured cells; format: cell-based
Protocol: (§2) Briefly, a range of tumour cells including mouse melanoma, human melanoma, mouse squamous cell carcinoma, human breast, human colon, human leukemia and human lung and normal human cells including normal human fibroblasts were seeded at 2-5,000 per microtitre well (96-well plate) in 10% FCS-RPMI 1640 culture medium, treated, and allowed to grow until the controls were nearly confluent (5-6 days). The wells were then washed twice with PBS, fix with ethanol for a minimum of 5 minutes and washed with water. SRB solution (50 μL of 0.4% in 1% acetic acid) was added and left at room temperature for a minimum of 15 minutes. The plate was washed rapidly with tap water and then twice with 1% acetic acid. After addition of 100 μL/well of 10 mM Tris base (unbuffered, pH>9), plates were left for a minimum of 5 minutes, then the absorbance was read at 564 nm on the ELISA reader, with a 3 second prior shaking. After subtraction of a blank (wells with no cells, absorbance typically about 0.04), growth inhibition was calculated as % of the untreated control and plotted against dose.
(§3) Briefly, a suspension of a range of tumour cells including mouse melanoma, human melanoma, mouse squamous cell carcinoma, human breast, human colon, human leukemia and human lung and normal human cells including normal human fibroblasts were seeded into round-bottom microtitre plates in 10% FCS-RPMI 1640 culture medium, treated and allowed to grow for 5-6 days. To measure cell growth, 20 μL of a combined MTS/PMS solution (Promega Cell ProliferationAssay Kit Cat #G5430) was added to each well of the 96 well assay plate. After 1-4 hours the plates were placed in the ELISA plate reader and the absorbance read at 490 nm. After subtraction of a blank (wells with no cells, absorbance typically about 0.4), growth inhibition was calculated as % of the untreated control and plotted against dose.

mouse melanoma B16 = test: Growth inhibition of cultured cells; format: cell-based
Protocol: as §2, §3

[2] = tested on: Mouse squamous cell carcinoma K-2; test: Growth inhibition of cultured cells; format: cell-based
Protocol: as §2, §3

## C/C=C(\C)C(=O)OC1C(C)C2(O)C(C3OC3(CO)C(O)C3(O)C(=O)C(C)=CC32)C2C(C)(C)C12OC(=O)C(C)CC (centres unmarked) [EBI-46, 12-tigloyl-13-(2-methylbutanoyl)-6,7-epoxy-4,5,9,12,13,20-hexahydroxy-1-tiglian-3-one]
LK2 mouse SCC; 37 ug/site in isopropanol gel once a day for 3 days, nude mice
  tumours cured and healed without scarring: without scarring of 3 out of 4
LK2 mouse SCC; 37 ug/site once a day for 3 days
  systemic toxicity or lung metastases on post mortem: no signs of systemic toxicity
LK2 mouse SCC; high dose 350 μg/site/treatment
  tumour growth inhibition result: excellent result
LK-2 mouse SCC; 10 μg in 25 μL PEG 400 containing 10% ethanol, 7 mm × 7 mm tumour
  tumour at 16 hours: tumour lump had largely gone
LK-2 mouse SCC; 10 μg in PEG 400 containing 10% ethanol, single injection
  time mouse remained tumour-free: over 9 months
LK-2 mouse SCC; intralesional 21 ug
  systemic toxicity or lung metastases on post mortem: There were no signs of
LK-2 mouse SCC; intralesional 21 ug (3 × 7 ug), 15-day established tumours
  tumour size: reduction of tumour size.
Bacillus subtilis
  Bs Titre: 1
Bacillus subtilis; Table 6a, last well with activity, real value may be lower
  Bs LD99: 50 pg/mL
[1]
  tumour growth: strongly inhibited
MM96L cell line
  change in morphology of MM96L cells: characteristic change to bipolar morphology; also recorded: extreme bipolar morphology
Human melanoma SKMel-5
  Concentration of EBI-46 at which growth inhibition was observed: <100 ng/mL
Mouse melanoma B16
  Concentration of EBI-46 at which growth inhibition was observed: =/<2 μg/mL
[2]
  Concentration of EBI-46 at which growth inhibition was observed: <100 ng/mL
